Assay results reported in patent publication US12365710B2, “HMGB1 protein derivatives for the removal of biofilms” (RESEARCH INSTITUTE AT NATIONWIDE CHILDREN'S HOSPITAL, priority 2018, dated 2025).
Read-outs that look alike come from different tables or passages of the source.

B1: B-linker Box: HMGB1 B Box with N- and C-terminal linker (80-179; 80 to 176 in b258), 97 amino acid (protein, UniProt P09429 80-179, looked up, fragment)
chain: PPKGETKKKFKDPNAPKRPPSAFFLFCSEYRPKIKGEHPGLSIGDVAKKLGEMWNNTAADDKQPYEKKAAKLKEKYEKDIAAYRAKGKPDAAKKGVVKAE

Tests used:
[1] = test system: NTHI biofilm; experiment: in vitro disruption of established biofilms, CLSM and COMSTAT; assay type: cell-based, Nontypeable Haemophilus influenzae; details: 200 nM added at 24 h, 16 h exposure
Procedure: (§1) FIGS. 5A-5E: Anti-biofilm effect of HMGB1 variants on high priority bacterial pathogens. Indicated HMGB1 variants or antibodies against DNABII proteins (α-1HFEc 1gG, 1 μM) were added at 24 h to the respective preformed bacterial biofilms, in vitro. After 16 h of Incubation, biofilms were stained with LIVE/DEAD®, then visualized via confocal laser scanning microscopy. Images were analyzed by COMSTAT to calculate average thickness and comparison to control was plotted. (FIG. 5A) Full-length HMGB1 isoforms (200 nM unless otherwise indicated) added to UPEC, B. cenocepacia, NTHI, or ESKAPE pathogens. 800 nM rHMGB1 and 200 nM mHMGB1 were added for S. aureus (ESKAPE). 800 nM rHMGB1, 800 nM mHMGB1, or 3.3 μM of α-1HFEc 1gG were added for E. faecium (ESKAPE) and were incubated for 1 h as opposed to 16 h to avoid potential degradation by E. faecium proteases. (FIG. 5B) Representative images of UPEC biofilms incubated with increasing concentrations of rHMGB1. (FIG. 5C) Individual domains of HMGB1 (200 nM) were tested for anti-biofilm activity as above (dotted line indicates control values). Bars represent the SEM. Statistical significance compared to control was assessed with unpaired t-tests, *P<0.05. […] (FIGS. 5D-5E) HMGB1 and variants disrupt preformed Klebsiella pneumoniae biofilms. rHMGB1, HMGB1 C45S (mHMGB1), bovine HMGB1 (bHMGB1), B box, B Box C106S (mB Box), A Box, and A+B Box were added (200 nM) at 24 h to preformed K. pneumoniae biofilms. After 16 h of incubation, biofilms were stained with LIVE/DEAD®, then visualized via confocal laser scanning microscopy. Images were analyzed by COMSTAT to calculate average thickness and total biomass. Error bars represent the SEM. ***P<0.0001; ns=not significant.
(§2) HMGB1 disrupts pathogenic biofilms: To test the effect of HMGB1 on bacterial biofilms (FIG. 5), Applicant cloned (IMPACT®, NEB Ipswich, MA), expressed (in E. coli), and purified (heparin sepharose chromatography to >95% purity) tagless human recombinant HMGB1 (rHMGB1) and an engineered C45 S variant (mHMGB1) that mimics the reduced form of HMGB1. rHMGB1 readily forms an intramolecular disulfide bond between C23 and C45 that contributes to pro-inflammatory activity whereas mHMGB1 cannot. These HMGB1 isoforms were evaluated for ability to disrupt established biofilms (formed for 24 h prior to addition). After a 16 h exposure to a single dose of rHMGB1 (200 nM; ˜25-fold greater than typical sepsis serum concentration, but not able to directly induce sepsis), biofilms formed by a wide variety of high priority species were stained with LIVE/DEAD®, analyzed using confocal laser scanning microscopy (CLSM) and COMSTAT analysis and compared to control biofilms. […] Preliminary analysis of PTMs by LC-MS/MS analysis (MS Bioworks, LLC Ann Arbor, MI) indicated minimal modification of both rHMGB1 and nHMGB1 (<20% of the observed peptides had any given PTM, FIG. 1C). […] Thus, while there are intrinsic differences in sensitivity among pathogens, the biofilms formed by all of the tested high priority pathogens were susceptible to a single dose of these non-antimicrobial compounds.
HMGB1 domain structure and anti-biofilm activity: Applicant then produced recombinant HMGB1 truncation variants, of 1) the A Box, a self-contained DNA-binding domain (residues 1-89); 2) an A-B Boxes construct (lacks the C tail; residues 1-185); and 3) the B Box (residues 80 to 176, FIGS. 1A and 1C). […]

[2] = test system: E. faecium biofilm; experiment: as above; assay type: cell-based; details: 800 nM rHMGB1, incubated 1 h (FIG. 5A)
Procedure: (§3) FIGS. 5A-5E: Anti-biofilm effect of HMGB1 variants on high priority bacterial pathogens. Indicated HMGB1 variants or antibodies against DNABII proteins (α-1HFEc 1gG, 1 μM) were added at 24 h to the respective preformed bacterial biofilms, in vitro. After 16 h of Incubation, biofilms were stained with LIVE/DEAD®, then visualized via confocal laser scanning microscopy. Images were analyzed by COMSTAT to calculate average thickness and comparison to control was plotted. (FIG. 5A) Full-length HMGB1 isoforms (200 nM unless otherwise indicated) added to UPEC, B. cenocepacia, NTHI, or ESKAPE pathogens. 800 nM rHMGB1 and 200 nM mHMGB1 were added for S. aureus (ESKAPE). […] Statistical significance compared to control was assessed with unpaired t-tests, *P<0.05. […] Images were analyzed by COMSTAT to calculate average thickness and total biomass. […]
(§4) HMGB1 disrupts pathogenic biofilms: To test the effect of HMGB1 on bacterial biofilms (FIG. 5), Applicant cloned (IMPACT®, NEB Ipswich, MA), expressed (in E. coli), and purified (heparin sepharose chromatography to >95% purity) tagless human recombinant HMGB1 (rHMGB1) and an engineered C45 S variant (mHMGB1) that mimics the reduced form of HMGB1. rHMGB1 readily forms an intramolecular disulfide bond between C23 and C45 that contributes to pro-inflammatory activity whereas mHMGB1 cannot. […]

[3] = test system: S. aureus biofilm; experiment: as above; assay type: cell-based; details: 800 nM rHMGB1 used (FIG. 5A)
Procedure: as §3, §4

[4] = test system: serum TNF-alpha (TNF-α); details: cited from earlier work
[5] = test system: UPEC biofilm; experiment: in vitro disruption of established biofilms, CLSM and COMSTAT; assay type: cell-based, Uropathogenic E. coli; details: for disruption of established UPEC biofilms: added at 24 h, 16 h exposure, 200 nM unless stated
Procedure: as §1, §2
HMGB1 domain structure and anti-biofilm activity: Applicant then produced recombinant HMGB1 truncation variants, of 1) the A Box, a self-contained DNA-binding domain (residues 1-89); 2) an A-B Boxes construct (lacks the C tail; residues 1-185); and 3) the B Box (residues 80 to 176, FIGS. 1A and 1C). […] Since only the B Box can modulate DNA bending, without being bound by theory, it was hypothesized that HMGB1 disrupts biofilms at least in part via DNA-binding/bending. As the B Box is reported to contain pro-inflammatory activity, mediated primarily through interactions with TLR4-MD2 that are dependent on residue C106, Applicant created a modified B Box variant (mB Box) with a C106S mutation (FIGS. 1A and 1C).

[6] = test system: established biofilms formed by high priority human pathogens; experiment: in vitro disruption of established biofilms of high priority pathogens (panel); assay type: cell-based, UPEC, B. cenocepacia, NTHI, ESKAPE pathogens; details: single dose 200 nM, biofilms formed 24 h, 16 h exposure
Procedure: as §3, §4

[7] = test system: B. cenocepacia biofilm; assay type: cell-based, Burkholderia cenocepacia; details: 200 nM added at 24 h, 16 h exposure
Procedure: Indicated HMGB1 variants or antibodies against DNABII proteins (α-1HFEc 1gG, 1 μM) were added at 24 h to the respective preformed bacterial biofilms, in vitro. After 16 h of Incubation, biofilms were stained with LIVE/DEAD®, then visualized via confocal laser scanning microscopy. Images were analyzed by COMSTAT to calculate average thickness and comparison to control was plotted. (FIG. 5A) Full-length HMGB1 isoforms (200 nM unless otherwise indicated) added to UPEC, B. cenocepacia, NTHI, or ESKAPE pathogens. 800 nM rHMGB1 and 200 nM mHMGB1 were added for S. aureus (ESKAPE). 800 nM rHMGB1, 800 nM mHMGB1, or 3.3 μM of α-1HFEc 1gG were added for E. faecium (ESKAPE) and were incubated for 1 h as opposed to 16 h to avoid potential degradation by E. faecium proteases. […] (FIG. 5C) Individual domains of HMGB1 (200 nM) were tested for anti-biofilm activity as above (dotted line indicates control values). Bars represent the SEM. Statistical significance compared to control was assessed with unpaired t-tests, *P<0.05. […] After 16 h of incubation, biofilms were stained with LIVE/DEAD®, then visualized via confocal laser scanning microscopy. Images were analyzed by COMSTAT to calculate average thickness and total biomass. Error bars represent the SEM. ***P<0.0001; ns=not significant.

Row | Molecule | disruption of established NTHI biofilms [1] | concentration needed to disrupt E. faecium biofilm [2] | concentration needed to disrupt S. aureus biofilm [3] | amount required to induce sepsis, compared to our doses ([4]; 4 doses in 40 h, LPS-primed mice) | disruption of established UPEC biofilms [5] | average thickness of UPEC biofilm ([5]; progressively higher concentrations of rHMGB1, up to 400 nM, monolayer) | disruption of established biofilms (average thickness and biomass) of high priority species [6] | disruption of established biofilms (average thickness and biomass) of high priority species ([6]; listed as Full length recombinant HMGB1) | amount required to induce sepsis, compared to our doses ([4]; B Box alone) | disruption of established Bc biofilms [7]
1 | rHMGB1: tagless human recombinant full length HMGB1 (1-215) expressed in E. coli | not as responsive | required a higher (albeit non-bactericidal) concentration | required a higher (albeit non-bactericidal) concentration | 2 fold | disrupted a UPEC biofilm in a dose-dependent manner | ~1 μm | significant reduction | significantly disrupt | – | –
2 | B1 | retained full anti-biofilm activity | – | – | – | retained full anti-biofilm activity | – | – | – | > 450 fold | retained full anti-biofilm activity
